From PMC12643509, “High-throughput screens identify genotype-specific therapeutics for channelopathies” (JCI Insight, 2025)
Several values for one entry are separate records, joined by “and”; a condition that tells them apart may be missing. Equal values may be shown once.

Tests used:
WT Kv11.1 = WT Kv11.1 (Homo sapiens, UniProt Q12809); experiment: Whole-cell patch-clamp electrophysiology, drug in bath solution, WT; format: cell-based; parameters: expressed in transfected cells; Activation tail currents / Steady-state currents / Time constants of activation (τ): unit not given here; conditions: for Figure 5E value per cell vs Voltage (mV) / Figure 5F value per cell vs Voltage (mV) / Figure 4D value per cell vs Voltage (mV): individual replicates; for Inactivation time constant / Fast deactivation time constant / Slow deactivation time constant: Evacetrapib (15 µmol/L); for Peak tail current: Evacetrapib 15 µmol/L
Excerpt: Peak stea dy-sta te current was
Tail current was fit with a […]

[1] = mouse, in vivo, ip, 40 mg/kg; cited from earlier work
[2] = cited from earlier work

Sequence of WT Kv11.1 (Q12809 whole entry): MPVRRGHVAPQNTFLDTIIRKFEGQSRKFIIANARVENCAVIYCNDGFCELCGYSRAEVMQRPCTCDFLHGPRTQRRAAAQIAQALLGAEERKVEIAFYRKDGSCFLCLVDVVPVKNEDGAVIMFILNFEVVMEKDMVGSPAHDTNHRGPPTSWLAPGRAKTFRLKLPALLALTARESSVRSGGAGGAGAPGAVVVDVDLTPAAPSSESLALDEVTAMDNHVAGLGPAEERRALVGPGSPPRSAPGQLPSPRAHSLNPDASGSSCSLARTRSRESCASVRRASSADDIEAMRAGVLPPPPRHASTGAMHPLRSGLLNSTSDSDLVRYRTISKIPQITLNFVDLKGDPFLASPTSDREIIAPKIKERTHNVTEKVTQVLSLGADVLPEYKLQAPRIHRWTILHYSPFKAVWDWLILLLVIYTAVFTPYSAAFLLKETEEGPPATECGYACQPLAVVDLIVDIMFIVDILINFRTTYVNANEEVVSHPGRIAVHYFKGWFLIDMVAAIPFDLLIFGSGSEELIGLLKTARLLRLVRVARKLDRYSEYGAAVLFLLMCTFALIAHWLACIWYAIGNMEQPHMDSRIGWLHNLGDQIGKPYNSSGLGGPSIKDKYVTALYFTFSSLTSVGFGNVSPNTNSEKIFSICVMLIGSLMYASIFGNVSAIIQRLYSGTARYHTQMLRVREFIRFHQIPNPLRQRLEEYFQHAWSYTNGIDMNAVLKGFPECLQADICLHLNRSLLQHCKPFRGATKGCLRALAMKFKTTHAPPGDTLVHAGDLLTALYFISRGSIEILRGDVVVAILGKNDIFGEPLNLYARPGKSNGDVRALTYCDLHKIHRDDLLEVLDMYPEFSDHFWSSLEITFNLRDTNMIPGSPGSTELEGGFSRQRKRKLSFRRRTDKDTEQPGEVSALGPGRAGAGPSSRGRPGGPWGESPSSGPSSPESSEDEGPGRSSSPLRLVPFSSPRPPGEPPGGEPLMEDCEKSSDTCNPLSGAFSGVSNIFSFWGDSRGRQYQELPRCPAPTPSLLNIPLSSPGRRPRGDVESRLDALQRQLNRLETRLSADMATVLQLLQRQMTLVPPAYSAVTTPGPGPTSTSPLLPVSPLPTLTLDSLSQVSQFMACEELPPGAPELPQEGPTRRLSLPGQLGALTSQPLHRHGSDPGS

Cc1cc(C)c2c(c1)[C@@H](N(Cc1cc(C(F)(F)F)cc(C(F)(F)F)c1)c1nnn(C)n1)CCCN2C[C@H]1CC[C@H](C(=O)O)CC1 [Evacetrapib, evacetrapib]
Figure 5E value per cell vs Voltage (mV) (WT Kv11.1; Voltage -50 mV): 902.031 and 870.108 and 1400.85 and 879.311 and 1017 and 1248.9
Figure 5F value per cell vs Voltage (mV) (WT Kv11.1; Voltage -50 mV): 6388.9 and 7989.38 and 5622.96
Figure 4D value per cell vs Voltage (mV) (WT Kv11.1; Voltage -60 mV): 15.2329 and 15.5388 and 14.7818 and 13.5682 and 12.8587 and 15.0819 and 14.9385 and 15.3669
Figure 5E value per cell vs Voltage (mV) (WT Kv11.1; Voltage -60 mV): 1032.08 and 966.812 and 405
Figure 5F value per cell vs Voltage (mV) (WT Kv11.1; Voltage -60 mV): 3804.89 and 9449.49 and 8793.8 and 3687.69 and 9196.29
Figure 4D value per cell vs Voltage (mV) (WT Kv11.1; Voltage -70 mV): 13.1624 and 13.1509 and 12.2005 and 10.7217 and 10.4496 and 12.0627 and 12.9211 and 13.7327
Figure 5E value per cell vs Voltage (mV) (WT Kv11.1; Voltage -70 mV): 981.118 and 839.618 and 778.428
Figure 5F value per cell vs Voltage (mV) (WT Kv11.1; Voltage -70 mV): 5126.65 and 3642.53 and 2594.13
Figure 4D value per cell vs Voltage (mV) (WT Kv11.1; Voltage -90 mV): 8.355 and 8.669 and 7.114 and 6.058 and 6.564 and 7.143 and 9.871 and 9.491
Figure 5E value per cell vs Voltage (mV) (WT Kv11.1; Voltage -90 mV): 372.839 and 359.851 and 360.592 and 394.825 and 418.114 and 332.621 and 441 and 468.124
Figure 5F value per cell vs Voltage (mV) (WT Kv11.1; Voltage -90 mV): 3977.04 and 1576.1 and 1475.11 and 1269.7 and 1679.13 and 1263.86 and 1827.67 and 3682.76
Figure 4D value per cell vs Voltage (mV) (WT Kv11.1; Voltage -100 mV): 5.9805 and 6.106 and 5.3207 and 4.4265 and 4.931 and 4.972 and 6.757 and 6.876
Figure 5E value per cell vs Voltage (mV) (WT Kv11.1; Voltage -100 mV): 366.452 and 329.996 and 269.807 and 269.273 and 487.907 and 220.859 and 396.726 and 472.93
Figure 5F value per cell vs Voltage (mV) (WT Kv11.1; Voltage -100 mV): 2314.55 and 1511.55 and 907.537 and 927.568 and 1874.88 and 839.178 and 1131.37 and 2375.79
Figure 4D value per cell vs Voltage (mV) (WT Kv11.1; Voltage -110 mV): 4.757 and 4.592 and 3.934 and 3.367 and 4.027 and 3.635 and 4.594 and 4.969
Figure 5E value per cell vs Voltage (mV) (WT Kv11.1; Voltage -110 mV): 253.98 and 258.663 and 186.827 and 175.481 and 304.962 and 138.114 and 283.639 and 296.398
Figure 5F value per cell vs Voltage (mV) (WT Kv11.1; Voltage -110 mV): 1302.55 and 1153.11 and 698.663 and 755.178 and 1277.44 and 611.635 and 865.285 and 1384.34
Figure 4D value per cell vs Voltage (mV) (WT Kv11.1; Voltage -120 mV): 3.611 and 3.4981 and 2.97 and 2.532 and 3.293 and 2.583 and 3.34 and 3.894
Figure 5E value per cell vs Voltage (mV) (WT Kv11.1; Voltage -120 mV): 244.589 and 219.981 and 132.908 and 108.36 and 189.369 and 89.3521 and 190.069 and 167.699
Figure 5F value per cell vs Voltage (mV) (WT Kv11.1; Voltage -120 mV): 3324.93 and 1104 and 582.988 and 644.385 and 999.7 and 579.372 and 805.065 and 656.376
Inactivation time constant (WT Kv11.1; Voltage step 0, WT): 11.1 ± 0.6 ms
Inactivation time constant (WT Kv11.1; Voltage step 10, WT): 8.5 ± 0.3 ms
Inactivation time constant (WT Kv11.1; Voltage step 20, WT): 6.3 ± 0.2 ms
Inactivation time constant (WT Kv11.1; Voltage step 30, WT): 4.6 ± 0.2 ms
Inactivation time constant (WT Kv11.1; Voltage step 40, WT): 3.4 ± 0.2 ms
Inactivation time constant (WT Kv11.1; Voltage step 50, WT): 2.6 ± 0.2 ms
Inactivation time constant (WT Kv11.1; Voltage step 60, WT): 2.1 ± 0.1 ms
Inactivation time constant (WT Kv11.1; Voltage step 70, WT): 1.6 ± 0.1 ms
Peak tail current (WT Kv11.1; Voltage step (mV) 0, WT, mean±SD): 66.0±31.5 pA/pF
Peak tail current (WT Kv11.1; Voltage step (mV) 10, WT, mean±SD): 53.8±28.6 pA/pF
Peak tail current (WT Kv11.1; Voltage step (mV) 20, WT, mean±SD): 43.6±25.2 pA/pF
Peak tail current (WT Kv11.1; Voltage step (mV) 30, WT, mean±SD): 34.5±20.7 pA/pF
Peak tail current (WT Kv11.1; Voltage step (mV) 40, WT, mean±SD): 28.0±16.9 pA/pF
Peak tail current (WT Kv11.1; Voltage step (mV) -10, WT, mean±SD): 78.0±33.4 pA/pF
Peak tail current (WT Kv11.1; Voltage step (mV) -20, WT, mean±SD): 89.2±35.1 pA/pF
Peak tail current (WT Kv11.1; Voltage step (mV) -30, WT, mean±SD): 95.9±34.9 pA/pF
Peak tail current (WT Kv11.1; Voltage step (mV) -40, WT, mean±SD): 95.8±33.5 pA/pF
Peak tail current (WT Kv11.1; Voltage step (mV) -50, WT, mean±SD): 86.7±30.0 pA/pF
Peak tail current (WT Kv11.1; Voltage step (mV) -60, WT, mean±SD): 68.2±25.6 pA/pF
Peak tail current (WT Kv11.1; Voltage step (mV) -70, WT, mean±SD): 41.5±21.4 pA/pF
Peak tail current (WT Kv11.1; Voltage step (mV) -80, WT, mean±SD): 7.2±20.3 pA/pF
Peak tail current (WT Kv11.1; Voltage step (mV) -90, WT, mean±SD): -32.8±24.4 pA/pF
Peak tail current (WT Kv11.1; Voltage step (mV) -100, WT, mean±SD): -76.7±33.7 pA/pF
Peak tail current (WT Kv11.1; Voltage step (mV) -110, WT, mean±SD): -125.2±46.2 pA/pF
Peak tail current (WT Kv11.1; Voltage step (mV) -120, WT, mean±SD): -176.7±61.8 pA/pF
Inactivation time constant (WT Kv11.1; Voltage step -10, WT): 13.6 ± 0.7 ms
Inactivation time constant (WT Kv11.1; Voltage step -20, WT): 15.5 ± 0.9 ms
Fast deactivation time constant (WT Kv11.1; Voltage step -60, WT): 801.3 ± 344.8 ms
Slow deactivation time constant (WT Kv11.1; Voltage step -60, WT): 6986.4 ± 2967.3 ms
Fast deactivation time constant (WT Kv11.1; Voltage step -70, WT): 866.4 ± 104.0 ms
Slow deactivation time constant (WT Kv11.1; Voltage step -70, WT): 3787.8 ± 1272.5 ms
Fast deactivation time constant (WT Kv11.1; Voltage step -90, WT): 393.5 ± 46.0 ms
Slow deactivation time constant (WT Kv11.1; Voltage step -90, WT): 2093.9 ± 1091.1 ms
Fast deactivation time constant (WT Kv11.1; Voltage step -100, WT): 351.7 ± 97.5 ms
Slow deactivation time constant (WT Kv11.1; Voltage step -100, WT): 1485.3 ± 634.8 ms
Fast deactivation time constant (WT Kv11.1; Voltage step -110, WT): 237.3 ± 62.3 ms
Slow deactivation time constant (WT Kv11.1; Voltage step -110, WT): 1006.0 ± 306.8 ms
Fast deactivation time constant (WT Kv11.1; Voltage step -120, WT): 167.8 ± 54.1 ms
Slow deactivation time constant (WT Kv11.1; Voltage step -120, WT): 1087.1 ± 925.0 ms
rate of activation (WT Kv11.1; WT): decelerated the rate of activation
rate of deactivation (WT Kv11.1; WT): slowed the rate of deactivation
rate of inactivation (WT Kv11.1; WT channels): did not affect the rate of inactivation
recovery from inactivation (WT Kv11.1; WT channels): slight delay in the reopening from inactivation
Time constants of activation (τ) (WT Kv11.1; WT, evacetrapib 15 μmol/L, individual cells): 764.055 and 877.888 and 1509 and 938.338 and 764.764 and 413.052
Activation τ (WT Kv11.1; WT, evacetrapib 15 μmol/L, mean ± SD): 877 ± 360 ms
Max (voltage dependence of activation) (WT Kv11.1; WT, mean±SD, N=11): 78.2 ± 26.7 pA/pF
Slope factor (voltage dependence of activation) (WT Kv11.1; WT, mean±SD, N=11): 9.0 ± 1.6
V1/2 (voltage dependence of activation) (WT Kv11.1; WT, mean±SD, N=11): -4.0 ± 8.4 mV
WT currents (WT Kv11.1; whole-cell patch-clamp): increases WT currents
peak plasma levels [1]: 35 µmol/L
mean QT interval compared to placebo ([2]; 71 healthy patients, thorough QT study): did not significantly shorten the mean QT interval
shorter QT interval compared with baseline ([2]; at 12 hours): 7 ms
